Experimental data as given in ChEMBL document CHEMBL4339250 (J Nat Prod, 2019).
pEC50, pIC50: −log10 of the molar value. Calls of active or inactive are those of the source. No cut-off for these calls is given here.

Key:
[1] = target: T1, Peroxisome proliferator-activated receptor gamma (Homo sapiens) (UniProt P37231); settings: at 10 µM
T1 sequence (whole entry): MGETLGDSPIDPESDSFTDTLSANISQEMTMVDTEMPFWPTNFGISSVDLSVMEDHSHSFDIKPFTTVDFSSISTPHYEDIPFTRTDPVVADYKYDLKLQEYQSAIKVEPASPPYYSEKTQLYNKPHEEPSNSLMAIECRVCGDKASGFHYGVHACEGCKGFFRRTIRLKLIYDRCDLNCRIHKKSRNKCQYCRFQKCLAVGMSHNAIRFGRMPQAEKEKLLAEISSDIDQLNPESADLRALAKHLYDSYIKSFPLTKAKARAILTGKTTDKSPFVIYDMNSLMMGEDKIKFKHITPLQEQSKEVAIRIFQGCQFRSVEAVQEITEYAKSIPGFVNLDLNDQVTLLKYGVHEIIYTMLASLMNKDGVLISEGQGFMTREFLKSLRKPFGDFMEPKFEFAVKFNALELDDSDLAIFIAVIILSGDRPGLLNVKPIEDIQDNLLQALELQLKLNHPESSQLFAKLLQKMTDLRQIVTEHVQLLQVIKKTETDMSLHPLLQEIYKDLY

[2] = target: T2, Peroxisome proliferator-activated receptor alpha (Homo sapiens) (UniProt Q07869); assay: Agonist activity at human PPARalpha expressed in African green monkey COS7 cells assessed as increase in receptor transcriptional activity at 10 uM by luciferase reporter gene assay relative to WY-14643; assay type: cell-based
T2 sequence (whole entry): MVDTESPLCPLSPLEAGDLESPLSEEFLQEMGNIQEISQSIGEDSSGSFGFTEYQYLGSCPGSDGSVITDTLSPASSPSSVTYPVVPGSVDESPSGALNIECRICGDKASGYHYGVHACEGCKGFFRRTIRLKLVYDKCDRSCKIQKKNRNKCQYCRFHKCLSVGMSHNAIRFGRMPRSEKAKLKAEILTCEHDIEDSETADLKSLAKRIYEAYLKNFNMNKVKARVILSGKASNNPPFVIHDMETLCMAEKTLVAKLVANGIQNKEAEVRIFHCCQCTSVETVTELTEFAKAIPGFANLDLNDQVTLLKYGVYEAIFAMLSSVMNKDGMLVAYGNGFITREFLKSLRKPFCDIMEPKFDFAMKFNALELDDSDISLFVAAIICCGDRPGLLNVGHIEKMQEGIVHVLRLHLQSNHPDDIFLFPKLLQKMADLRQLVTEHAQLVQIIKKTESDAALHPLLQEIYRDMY

[3] = target: T3, Peroxisome proliferator-activated receptor gamma (Homo sapiens, UniProt P37231); assay: Agonist activity at human PPARgamma expressed in African green monkey COS7 cells assessed as increase in receptor transcriptional activity by luciferase reporter gene assay relative to rosiglitazone; assay type: cell-based; settings: for pEC50: read-out: EC50
T3 sequence (P37231 whole entry): T1 sequence (whole entry)

Neutrophil [4] = assay: Cytotoxicity against human neutrophils assessed as induction of cell damage at 30 uM incubated for 24 hrs by MTT assay; assay type: cell-based
[5] = target: T4, Peroxisome proliferator-activated receptor alpha (Homo sapiens, UniProt Q07869); assay: Agonist activity at human PPARalpha expressed in African green monkey COS7 cells assessed as increase in receptor transcriptional activity by luciferase reporter gene assay relative to WY-14643; assay type: cell-based; settings: for pEC50: read-out: EC50
T4 sequence (Q07869 whole entry): T2 sequence (whole entry)

HUVEC [6] = assay: Cytotoxicity against HUVEC assessed as induction of cell damage at 30 uM incubated for 24 hrs by MTT assay; assay type: cell-based; settings: human
HUVEC [7] = assay: (§1) Anti-inflammatory activity in HUVEC assessed as reduction in TNFalpha-stimulated neutrophil-HUVEC interactions by measuring decrease in mononuclear leukocyte to endothelial cells at 1 uM pretreated for 20 hrs before TNFalpha stimulation for 24 hrs using freshly isolated mononuclear leukocytes perfused over endothelial monolayers for 5 mins by phase contrast microscopy; assay type: functional, cell-based; settings: Homo sapiens
HUVEC [8] = assay: Induction of apoptosis in HUVEC at 30 uM incubated for 24 hrs by annexin V-FITC and propidium iodide staining based flow cytometry; assay type: cell-based; settings: human
HUVEC [9] = assay: as §1, with “10” for “1”, “treated” for “pretreated”, “post 48 hrs after PPARgamma siRNA transfection followed by” for “before”; assay type: functional, cell-based; settings: Homo sapiens
[10] = Cytotoxicity against human neutrophils assessed as cell viability at 30 uM incubated for 24 hrs by MTT assay; assay type: cell-based, Neutrophil; settings: read-out: Activity
[11] = Cytotoxicity against HUVEC assessed as cell viability at 30 uM incubated for 24 hrs by MTT assay; assay type: cell-based; settings: human, HUVEC cells; read-out: Activity
HUVEC [12] = assay: as §1, with “10” for “1”, “treated” for “pretreated”, “post 48 hrs after PPARalpha siRNA transfection followed by” for “before”; assay type: functional, cell-based; settings: Homo sapiens
HUVEC [13] = assay: Cytotoxicity against HUVEC assessed as reduction in cell viability at 30 uM incubated for 24 hrs by MTT assay; assay type: cell-based; settings: human
[14] = target: RXR alpha/PPAR gamma (Homo sapiens) (UniProt P37231+P19793); assay: Induction of RXRalpha/PPARgamma interaction in HUVEC at 10 uM pretreated for 20 hrs before TNFalpha stimulation by immunoprecipitation and Western blotting analysis; assay type: cell-based
HUVEC [15] = assay: as §1, with “10” for “1”, “treated” for “pretreated”, “post 48 hrs after control siRNA transfection followed by” for “before”; assay type: functional, cell-based; settings: Homo sapiens
Neutrophil [16] = assay: Induction of apoptosis in human neutrophils at 30 uM incubated for 24 hrs by annexin V-FITC and propidium iodide staining based flow cytometry; assay type: cell-based
Neutrophil [17] = assay: Cytotoxicity against human neutrophils assessed as reduction in cell viability at 30 uM incubated for 24 hrs by MTT assay; assay type: cell-based
HUVEC [18] = assay: as §1, with “10” for “1”, “treated” for “pretreated”, “post 48 hrs after RXRalpha siRNA transfection followed by” for “before”; assay type: functional, cell-based; settings: Homo sapiens
HUVEC [19] = assay: as §1, with “neutrophil adhesion” for “mononuclear leukocyte”, “neutrophils” for “mononuclear leukocytes”; assay type: functional, cell-based; settings: Homo sapiens
HUVEC [20] = assay: as §1, with “cells” for “cells at 1 uM”; assay type: functional, cell-based; settings: Homo sapiens
HUVEC [21] = assay: as §1, with “10” for “1”, “mins in presence of PPARgamma antagonist GW9662” for “mins”; assay type: functional, cell-based; settings: Homo sapiens
HUVEC [22] = assay: as §1, with “10” for “1”, “mins in presence of PPARalpha antagonist GW6471” for “mins”; assay type: functional, cell-based; settings: Homo sapiens
HUVEC [23] = assay: as §1, with “treated” for “pretreated”, “28” for “20”, “post 48 hrs after PPARalpha siRNA transfection followed by” for “before”; assay type: functional, cell-based; settings: Homo sapiens
HUVEC [24] = assay: as §1, with “treated” for “pretreated”, “post 48 hrs after control siRNA transfection followed by” for “before”; assay type: functional, cell-based; settings: Homo sapiens

## CCCOC(=O)/C(C)=C/CC/C(C)=C/CC[C@]1(C)CCc2cc(O)cc(C)c2O1
[1]
  Efficacy: 86%
[2]
  Efficacy: 49%
[3]
  pEC50: 6.00

## C/C(=C\CC[C@]1(C)CCc2cc(OCC(N)=O)cc(C)c2O1)CC/C=C(\C)C(=O)OCc1ccccc1
[2]
  Efficacy: 18%

## COc1cc(C)c2c(c1)CC[C@@](C)(CC/C=C(\C)CC/C=C(\C)C(=O)O)O2
Neutrophil [4]
  Activity: Toxic
[5]
  pEC50: 6.00
HUVEC [6]
  Activity: Toxic
[1]
  Efficacy: 55%
[2]
  Efficacy: 82%
[3]
  pEC50: 6.00

## COC(=O)COC(=O)/C(C)=C/CC/C(C)=C/CC[C@]1(C)CCc2cc(OC)cc(C)c2O1
[1]
  Efficacy: 24%
[2]
  Efficacy: 39%

## COC(=O)/C(C)=C/CC/C(C)=C/CC[C@]1(C)CCc2cc(O)cc(C)c2O1
[1]
  Efficacy: 35%
[2]
  Efficacy: 27%

## COC(=O)COC(=O)/C(C)=C/CC/C(C)=C/CC[C@]1(C)CCc2cc(OC(=O)c3ccccc3)cc(C)c2O1
[2]
  Efficacy: 14%

## C/C(=C\CC[C@]1(C)CCc2cc(O)cc(C)c2O1)CC/C=C(\C)C(=O)O
HUVEC [7]
  Activity: Active
HUVEC [8]
  Activity: Non-Toxic
HUVEC [9]
  Activity: inactive
[10]
  viability at 24 h, 30 µM: 89.2%
[11]
  viability at 24 h, 30 µM: 73.4%
HUVEC [12]
  Activity: Active
HUVEC [13]
  Activity: Non-Toxic
[5]
  pEC50: 6.74
[14]
  Activity: Active
HUVEC [15]
  Activity: Active
Neutrophil [16]
  Activity: Non-Toxic
Neutrophil [17]
  Activity: Non-Toxic
HUVEC [18]
  Activity: inactive
HUVEC [19]
  Activity: inactive
HUVEC [20]
  pIC50: 5.31
[1]
  Efficacy: 95%
[2]
  Efficacy: 107%
HUVEC [21]
  Activity: inactive
[3]
  pEC50: 7.08
HUVEC [22]
  Activity: Active

## Cc1cc(SCc2sc(-c3ccc(C(F)(F)F)cc3)nc2C)ccc1OCC(=O)O
[2]
  Efficacy: inactive

## CC1=C(/C=C/C(C)=C\C=C\C(C)=C\C(=O)O)C(C)(C)CCC1
[2]
  Efficacy: inactive

## CN(CCOc1ccc(CC2SC(=O)NC2=O)cc1)c1ccccn1 (stereo unspecified) [ROSIGLITAZONE]
HUVEC [7]
  Activity: Active
HUVEC [13]
  Activity: Toxic
[5]
  EC50: Not Active
HUVEC [23]
  Activity: Active
Neutrophil [17]
  Activity: Toxic
HUVEC [19]
  Activity: inactive
HUVEC [20]
  inhibition: Dose-dependent effect
[2]
  Efficacy: inactive
HUVEC [24]
  Activity: Active

## COC(=O)C(OC(=O)/C(C)=C/CC/C(C)=C/CC[C@]1(C)CCc2cc(OC)cc(C)c2O1)C(=O)OC
[5]
  pEC50: 5.79
[1]
  Efficacy: 37%
[2]
  Efficacy: 76%

## CCCOc1cc(C)c2c(c1)CC[C@@](C)(CC/C=C(\C)CC/C=C(\C)C(=O)O)O2
[5]
  pEC50: 6.00
[1]
  Efficacy: 88%
[2]
  Efficacy: 191%
[3]
  pEC50: 5.77

## C/C(=C\CC[C@]1(C)CCc2cc(OCc3ccccc3)cc(C)c2O1)CC/C=C(\C)C(=O)OCc1ccccc1
[2]
  Efficacy: 28%

## Cc1cccc(Nc2cc(Cl)nc(SCC(=O)O)n2)c1C [PIRINIXIC ACID]
HUVEC [19]
  Activity: inactive
[3]
  EC50: Not Active
